# Reference: patent US10266526B2, “Substituted 1,2,3-triazoles as SMYD inhibitors for treating cancer” (EPIZYME, INC., priority 2014, dated 2019)
# Target: SMYD3 (Homo sapiens (Human), UniProt Q9H7B4)
# Test: SMYD3 biochemical assay (SMYD3 enzyme assay on MEKK2 protein substrate, 3H-SAM scintillation proximity assay)
# Settings: read-out: SMYD3 Biochem IC50 (μM)*
# Source text: S-adenosylmethionine (SAM), S-adenosylhomocysteine (SAH), Tris, Tween20, dimethylsulfoxide (DMSO), bovine skin gelatin (BSG), and Tris(2-carboxyethyl)phosphine hydrochloride solution (TCEP) were purchased from Sigma-Aldrich at the highest level of purity possible. ^3H-SAM was purchase from American Radiolabeled Chemicals with a specific activity of 80 Ci/mmol. 384-well opaque white OptiPlates and SPA beads (Perkin Elmer, catalog # RPNQ0013) were purchased from PerkinElmer.
# N-terminally GST-tagged MEKK2 (MAP3K2) protein corresponding to reference sequence AAF63496.3 was purchased from Life Technologies (catalog # PV4010). This protein was expressed in High Five insect cells and purified to >85% purity. Protein identity was confirmed by MS/MS analysis after proteolytic digestion. The protein sequence used was:
# Full-length human SMYD3 isoform 1 (BAB86333) was inserted into a modified pET21b plasmid containing a His6 tag and TEV and SUMO cleavage sites.
# E. coli (BL21 codonplus RIL strain, Stratagene) were transformed with plasmid pEPZ553 by mixing competent cells and plasmid DNA and incubating on ice for 30 minutes followed by heat shock at 42° C. for 1 minute and cooling on ice for 2 minutes. Transformed cells were grown and selected on LB agar with 100 μg/mL ampicillin and 17 μg/mL chloramphenicol at 37° C. overnight. A single clone was used to inoculate 200 mL of LB medium with 100 μg/mL ampicillin and 17 μg/mL chloramphenicol and incubated at 37° C. on an orbital shaker at 180 rpm. Once in log growth, the culture was diluted 1:100 into 2 L of LB medium and grown until OD600 was about 0.3 after which the culture was incubated at 15° C. and 160 rpm. Once OD600 reached about 0.4, IPTG was added to a final concentration of 0.1 mM and the cells were grown overnight at 15° C. and 160 rpm. Cells were harvested by centrifugation at 8000 rpm, for 4 minutes at 4° C. and stored at −80° C. for purification.
# The column was washed with Buffer B (Buffer A plus 20 mM imidazole) and His-tagged SMYD3 was eluted with Buffer C (Buffer A plus 300 mM imidazole). The His tag, TEV and SUMO cleavage sites were removed generating native SMYD3 by addition of ULP1 protein at a ratio of 1:200 (ULP1:SMYD3). Imidazole was removed by dialysis overnight in Buffer A. The dialyzed solution was applied to a second Nickel column and the native SMYD3 protein was collected from the column flow-through. The flow-through was dialyzed in Buffer D (25 mM Tris, 5% glycerol, 5 mM β-mercaptoethanol, 50 mM NaCl, pH7.8) and ULP1 was removed using a Q sepharose fast flow column.
# General Procedure for SMYD3 Enzyme Assays on MEKK2 Protein Substrate
# The assays were all performed in a buffer consisting of 25 mM Tris-Cl pH 8.0, 1 mM TCEP, 0.005% BSG, and 0.005% Tween 20, prepared on the day of use. […] DMSO (1 ul) was added to Columns 11, 12, 23, 24, rows A-H for the maximum signal control and 1 ul of SAH, a known product and inhibitor of SMYD3, was added to columns 11, 12, 23, 24, rows I-P for the minimum signal control. A cocktail (40 ul) containing the SMYD3 enzyme was added by Multidrop Combi (Thermo-Fisher). The compounds were allowed to incubate with SMYD3 for 30 min at room temperature, then a cocktail (10 ul) containing SAM and MEKK2 was added to initiate the reaction (final volume=51 ul). […] The assays were stopped by the addition of non-radiolabeled SAM (10 ul) to a final concentration of 100 uM, which dilutes the ^3H-SAM to a level where its incorporation into MEKK2 is no longer detectable. Radiolabeled MEKK2 was detected using a scintillation proximity assay (SPA). 10 uL of a 10 mg/mL solution of SPA beads in 0.5 M citric acid was added and the plates centrifuged at 600 rpm for 1 min to precipitate the radiolabeled MEKK2 onto the SPA beads.
# SMYD3, sequence (Q9H7B4 whole entry): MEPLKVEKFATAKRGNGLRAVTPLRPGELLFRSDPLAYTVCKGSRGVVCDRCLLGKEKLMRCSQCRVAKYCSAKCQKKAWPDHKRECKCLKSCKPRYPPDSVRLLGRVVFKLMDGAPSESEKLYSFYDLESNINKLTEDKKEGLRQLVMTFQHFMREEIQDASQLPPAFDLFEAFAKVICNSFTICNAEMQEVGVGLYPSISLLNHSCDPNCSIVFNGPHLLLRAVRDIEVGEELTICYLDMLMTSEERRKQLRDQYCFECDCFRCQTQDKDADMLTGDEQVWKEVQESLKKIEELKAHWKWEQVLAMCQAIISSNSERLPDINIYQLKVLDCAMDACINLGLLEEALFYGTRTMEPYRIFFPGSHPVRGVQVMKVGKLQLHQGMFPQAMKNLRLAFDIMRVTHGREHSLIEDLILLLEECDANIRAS
row,SMILES,IC50
1,"O=C1Cc2cc(C(=O)NC(c3ccccc3)C3CCNCC3)ccc2N1 (stereo not shown) [compound 44, 2-oxo-N-(phenyl(piperidin-4-yl)methyl)indoline-5-carboxamide]",14.1 µM
2,"Nc1cc(C(=O)NC(c2ccccc2)C2CCNCC2)n[nH]1 (stereo not shown) [compound 45, 5-amino-N-(phenyl(piperidin-4-yl)methyl)-1H-pyrazole-3-carboxamide]",137 µM
3,"O=C(NC1CCNCC1)c1ccc2ncc(=O)[nH]c2c1 [compound 46, 3-oxo-N-(piperidin-4-yl)-3,4-dihydroquinoxaline-6-carboxamide]",63.7 µM
4,"N[C@H]1CC[C@H](NC(=O)c2cnc3c(c2)CC(=O)N3)CC1 [compound 47, N-((1r,4r)-4-aminocyclohexyl)-2-oxo-2,3-dihydro-1H-pyrrolo[2,3-b]pyridine-5-carboxamide]",11.9 µM
5,"Cn1nc(N)cc1C(=O)N[C@H]1CC[C@H](N)CC1 [compound 48, 3-amino-N-((1r,4r)-4-aminocyclohexyl)-1-methyl-1H-pyrazole-5-carboxamide]",117 µM
6,"N[C@@H](Cc1ccc(O)cc1)C(=O)N1CCC(NC(=O)c2ccc3c(c2)CC(=O)N3)CC1 [compound 49, N-(1-(L-tyrosyl)piperidin-4-yl)-2-oxoindoline-5-carboxamide]",0.86 µM
7,"N[C@@H](Cc1c[nH]c2ccccc12)C(=O)N1CCC(NC(=O)c2ccc3c(c2)CC(=O)N3)CC1 [compound 51, N-(1-(L-tryptophyl)piperidin-4-yl)-2-oxoindoline-5-carboxamide]",0.69 µM
8,"CCC(=O)c1c[nH]c(C(=O)Nc2ccc(CN)cc2)c1 [compound 52, N-(4-(aminomethyl)phenyl)-4-propionyl-1H-pyrrole-2-carboxamide]",108 µM
9,"CCCCC1CC1C(=O)N[C@H]1CC[C@H](N)CC1 (stereo partly shown) [compound 53, N-((1r,4r)-4-aminocyclohexyl)-2-butylcyclopropane-1-carboxamide]",122 µM
10,"CCc1ccc(C(=O)N[C@H]2CC[C@H](N)CC2)s1 [compound 54, N-((1r,4r)-4-aminocyclohexyl)-5-ethylthiophene-2-carboxamide]",49.9 µM
11,"CCc1ccc(C(=O)NC(c2ccccc2)C2CCNCC2)s1 (stereo not shown) [compound 55, 5-ethyl-N-(phenyl(piperidin-4-yl)methyl)thiophene-2-carboxamide]",116 µM
12,"CCc1ccc(C(=O)Nc2ccc(CN)cc2)s1 [compound 56, N-(4-(aminomethyl)phenyl)-5-ethylthiophene-2-carboxamide]",138 µM
13,"Cc1cc2[nH]c(C(=O)N[C@H]3CC[C@H](N)CC3)cc2o1 [compound 57, N-((1r,4r)-4-aminocyclohexyl)-2-methyl-4H-furo[3,2-b]pyrrole-5-carboxamide]",134 µM
14,"Cc1cc2[nH]c(C(=O)NC3CCNCC3)cc2o1 [compound 58, 2-methyl-N-(piperidin-4-yl)-4H-furo[3,2-b]pyrrole-5-carboxamide]",76.1 µM
15,"CCc1ncc(C(=O)N[C@H]2CC[C@H](N)CC2)s1 [compound 59, N-((1r,4r)-4-aminocyclohexyl)-2-ethylthiazole-5-carboxamide]",184 µM
16,"CCc1ncc(C(=O)NC(c2ccccc2)C2CCNCC2)s1 (stereo not shown) [compound 60, 2-ethyl-N-(phenyl(piperidin-4-yl)methyl)thiazole-5-carboxamide]",150 µM
17,"CCc1ncc(C(=O)Nc2ccc(CN)cc2)s1 [compound 61, N-(4-(aminomethyl)phenyl)-2-ethylthiazole-5-carboxamide]",114 µM
18,"CC(CC(=O)N[C@H]1CC[C@H](N)CC1)C1CC1 (stereo partly shown) [compound 62, N-((1r,4r)-4-aminocyclohexyl)-3-cyclopropylbutanamide]",155 µM
19,"CC(CC(=O)NC(c1ccccc1)C1CCNCC1)C1CC1 (stereo not shown) [compound 63, 3-cyclopropyl-N-(phenyl(piperidin-4-yl)methyl)butanamide]",131 µM

row,SMILES,IC50
1,"CC(=O)c1c[nH]c(C(=O)N[C@H]2CC[C@H](N)CC2)c1 [compound 64, 4-acetyl-N-((1r,4r)-4-aminocyclohexyl)-1H-pyrrole-2-carboxamide]",134 µM
2,"CC(=O)c1c[nH]c(C(=O)NC2CCNCC2)c1 [compound 65, 4-acetyl-N-(piperidin-4-yl)-1H-pyrrole-2-carboxamide]",45.8 µM
3,"CC(=O)c1c[nH]c(C(=O)Nc2ccc(CN)cc2)c1 [compound 66, 4-acetyl-N-(4-(aminomethyl)phenyl)-1H-pyrrole-2-carboxamide]",60.9 µM
4,"Cn1nc(O)cc1C(=O)N[C@H]1CC[C@H](N)CC1 [compound 67, N-((1r,4r)-4-ammocyclohexyl)-3-hydroxy-1-methyl-1H-pyrazole-5-carboxamide]",129 µM
5,"O=C1Cc2cc(C(=O)NC3CCNCC3)cnc2N1 [compound 68, 2-oxo-N-(piperidin-4-yl)-2,3-dihydro-1H-pyrrolo[2,3-b]pyridine-5-carboxamide]",86.1 µM
6,"Cn1nc(O)cc1C(=O)NC1CCNCC1 [compound 69, 3-hydroxy-1-methyl-N-(piperidin-4-yl)-1H-pyrazole-5-carboxamide]",19.7 µM
7,"N[C@H]1CC[C@H](NC(=O)c2ccc3c(c2)NC(=O)CN3)CC1 [compound 70, N-((1r,4r)-4-aminocyclohexyl)-3-oxo-1,2,3,4-tetrahydroquinoxaline-6-carboxamide]",77.5 µM
8,"N[C@H]1CC[C@H](NC(=O)c2ccc3c(c2)NC(=O)C3)CC1 [compound 71, N-((1r,4r)-4-aminocyclohexyl)-2-oxoindoline-6-carboxamide]",89.3 µM
9,"N[C@@H](Cc1ccc(O)cc1)C(=O)N1CCC(NC(=O)c2ccc3c(c2)NC(=O)C3)CC1 [compound 72, N-(1-(L-tyrosyl)piperidin-4-yl)-2-oxoindoline-6-carboxamide]",35.5 µM
10,"N[C@H]1CC[C@H](NC(=O)c2ccc3[nH]c(=O)[nH]c3c2)CC1 [compound 73, N-((1r,4r)-4-aminocyclohexyl)-2-oxo-2,3-dihydro-1H-benzo[d]imidazole-5-carboxamide]",13.7 µM
11,"N[C@H]1CC[C@H](NC(=O)c2ccc3c(c2)CCC(=O)N3)CC1 [compound 74, N-((1r,4r)-4-aminocyclohexyl)-2-oxo-1,2,3,4-tetrahydroquinoline-6-carboxamide]",65.8 µM
12,"Nc1ccc2cc(C(=O)N[C@H]3CC[C@H](N)CC3)ccc2c1 [compound 75, 6-amino-N-((1r,4r)-4-aminocyclohexyl)-2-naphthamide]",62.5 µM
13,"N[C@H]1CC[C@H](NC(=O)c2ccc3nc(O)ccc3c2)CC1 [compound 76, N-((1r,4r)-4-aminocyclohexyl)-2-hydroxyquinoline-6-carboxamide]",115 µM
14,"CCC(=O)c1c[nH]c(C(=O)NC(c2ccccc2)C2CCNCC2)c1 (stereo not shown) [compound 77, N-(phenyl(piperidin-4-yl)methyl)-4-propionyl-1H-pyrrole-2-carboxamide]",10 µM
15,"CCS(=O)(=O)C(C)C(=O)N[C@H]1CC[C@H](N)CC1 (stereo partly shown) [compound 78, N-((1r,4r)-4-aminocyclohexyl)-2-(ethylsulfonyl)propanamide]",35.2 µM
16,"CN(C)Cc1ccc(C(=O)N[C@H]2CC[C@H](N)CC2)o1 [compound 79, N-((1r,4r)-4-aminocyclohexyl)-5-((dimethylamino)methyl)furan-2-carboxamide]",38.9 µM
17,"Nc1nc(C(=O)NC(c2ccccc2)C2CCNCC2)co1 (stereo not shown) [compound 80, 2-amino-N-(phenyl(piperidin-4-yl)methyl)oxazole-4-carboxamide]",97.1 µM
18,"Cc1cc2[nH]c(C(=O)Nc3ccc(CN)cc3)cc2o1 [compound 81, N-(4-(aminomethyl)phenyl)-2-methyl-4H-furo[3,2-b]pyrrole-5-carboxamide]",25.9 µM
